Laboratory results: US20020055130A1, “Method and product for regulating apoptosis” (National Jewish Center for Immunology and Respiratory …, priority 1997, published 2002)

What was measured:
JNK = JNK assay (solid state kinase assay with GST-Jun), L929 cells; assay type: cell-based, murine; conditions: for effect on JNK activity: bFGF 2.5 ng/ml, PD #098059 pretreatment; for effect on TNFα stimulation of JNK: co-stimulation or IPTG-induced Ras expression
Experimental: JNK assay. JNK activity was measured using a solid state kinase assay in which glutathione S-transferase-c-Jun(1-79) (GST-JUN) cound to glutathione-Sepharose 4B beads was used to affinity pruify JNK and then JNK activity was measured in an in vitro kinase assay using the sepharose bound GST-Jun as a substrate (Hibi, M., et al. (1993) Genes & Development 7:2135-2148). Stimulated or unstimulated cells were lysed in 0.5% Nonidet P-40, 20 mM HEPES pH 7.2, 100 mM NaCl, 2 mM dithiothreitol, lmM EDTA, 1.0 mM phenylmethylsulfonylfluoride, 1 μg/ml aprotinin and the nuclei pelleted. Lysates were normalized for protein content. […] Binding to GST-Jun efficiently isolates the two major forms of JNK (p45and p55) and under the conditions used JNK isolation was linear for 10-250 μg of cell lysate. The lysates were rotated at 4° C. for 1-3 h. Beads were washed twice in lysis buffer and then twice in PAN (10 mM PIPES, pH 7.0, 100 mM NaCl, 21 μg/ml aprotinin). Kinase reactions were carried out at 30° C. for 15 min in 20 mM Hepes pH 7.2, 20 mM β-glycerophosphate, 10 mMp-nitrophenyl phosphate, 10 mM MgCl2, 1 mM dithiothreitol, 50 μm sodium vanadate, 10 μCi γ^32P-ATP 4300 Ci/mmole. The kinase reaction was linear from 0-30 min.

L929 cells = assay: TNFα-mediated apoptosis of L929 cells (neutral red assay, propidium iodide staining); assay type: cell-based, murine; conditions: for effect on TNFα-mediated cell death / apoptosis / effect on the protective action of bFGF against TNFα-mediated cell death: L929 cells
Experimental: Cell lines and culture. L929 cells (ATCC CCL1 were maintained in Dulbecco's modified Eagle's medium with 5% newborn claf serum and 5% bovine calf serum (BCS) supplemented with 100 ug/ml streptomycin and 100U/ml penicillin. The cells were grown in 10 cm dishes at 37° C. in 7.5% CO2. Cells were made quiescent where indicated by incubation in Dulbecco's modified Eagle's medium and 0.1% bovine serum albumin for 24 h. Recombinant murine TNFα and recombinant humanbFGF (147aa) were from R&D Systems, Minneapolis, Minn. Cells were pretreated where indicated with the MEK-1 inhibitor PD#098059 (Parke-Davis Pharmaceutical Corp. Ann Arbor, Mich.) for 1 h at 37° C. Cells were stimulated by incubation with the indicated cytokine or growth factor for various times at 37° C. […] Stimulation was stopped by rinsing the plates twice with ice cold phosphate buffered saline (PBS) and lysing the cells in the appropriate lysis buffer. Cells were scraped from the plates and nuclei were pelleted for 10 min at 14,000 RPM in a microcentrifuge.
Neutral Red Assay Uptake of the dye neutral red was used as one measure of cell viability following cytokine or growth factor treatment (Finter, N. B. (1969) J. Gen Virol. 5:419-427). 1.5×10^4-2.5×10^5 L929 cells/well were plated in 12 well tissue culture dishes in 1.25 ml of media. Cells were treated for 15-20 hr with various concentrations of TNFα and/or bFGF. 2.5 μl of 1% neutral red was added to the wells and incubated for 2 hr at 37° C. PBS. The neutral red was extracted with 1.0 ml of 50% ethanol, 50 mM Na-citrate pH 4.2 and absorbency was measured at […].
Propidium iodide staining Cells were plated on glass chamber slides (Nunc, Naperville, Ill.) at a concentration of 0.2-0.6×10^5 cells/ml. Ras expression was induced with 5 mM IPTG in Dulbecco's modified Eagle's medium with 0.1% BCS for 8-12 hr. Cells were exposed to TNFα (5 ng/ml) and/or bFGF (500 pg/ml) in Dulbecco's modified Eagle's medium with 0.1% BCS for 16 hr. The parental LACI expressing cell line (see below) was used as a control. Cells were washed twice in PBS, fixed in acetone:methanol (1:1) −20° C. for 5 min, air dried, washed twice in PBS, stained with 1 μg/ml propidium iodide (PI) in PBS for 20 min, washed in PBS, washed in H2O and mounted in 25% glycerol/PBS. PI fluorescence was observed using a Nikon inverted microscope equipped with epifluorescence and a […] filter. Images were analyzed using IP lab.

p42/p44 MAPK = assay: MAPK assay (EGFR662-681 peptide), L929 cells; assay type: cell-based, murine
Experimental: MAPK Assay MAPK activity was measured exactly as described previously (Gardner, A. M., et al. (1994) Meth. Enzymol. 238:258-270) with the exception that MonoQ FPLC fractionation was replaced by step elution from a DEAE-Sephacel column using 0.5 M NaCl in loading buffer. The eluate was assayed in triplicate using the epidermal growth factor receptor 662-681 peptide (EGFR662-681) as a selective substrate for MAPK activity (Heasley, L. E., et al. (1994) American Journal of Physiology (Renal Fluid Electrolyte Physiol. 36) 267:F366-F373).

endogenous MEKK1 protein = assay: Cleavage of endogenous MEKK1 after genotoxic stress stimuli (immunoblot); assay type: cell-based, Human; conditions: HEK293 cells
Experimental: 200-400 μg cell lysate protein was subjected to SDS-9% PAGE and transferred to nitrocellulose membranes. Blots were performed exactly as described (Widmann et al., 1995). To detect HA-tagged proteins, the mouse monoclonal antibody 12CA5 (Babco) was used as the primary antibody, followed by a rabbit anti-mouse antibody (Cappel). HRP-conjugated protein A at a 1/5000 dilution (Zymed) and ^125I-protein A at a 1/500 dilution (Dupont NEN) were then used for enhanced chemiluminescence (ECL) detection and for quantification using the phosphorimager. To detect MEKK1, 3 different ploclonal antisera were used as primary antibodies, followed by ECL detection using HRP-protein A (see above). These sera were generated by injecting rabbits with GST proteins fused with different portions of the MEKK1 protein.
Several genotoxic stress stimuli were applied to HEK293 cells and their effect on the MEKK1 protein was assessed.

Raf-B = Raf-B immunoprecipitate in vitro kinase assay, EGF treated PC12 cells; assay type: cell-based; conditions: EGF 30 ng/ml timecourse
Experimental: (§1) Reactions were stopped by the addition of 2× SDS sample buffer (20 μl). The samples were boiled for 3 minutes and subjected to SDS-PAGE and autoradiography. Raf-B was immunoprecipitated from the same untreated and treated PC 12 cell lysates as above with an antiserum to a COOH-terminal peptide of Raf-B (Santa Cruz Biotechnology, Inc.) and assayed similarly. Raf-1 was immunoprecipitated with an antiserum to the 12 COOH-terminal amino acids of Raf-1 (Santa Cruz Biotechnology, Inc.).

c-Raf-1 = assay: Raf-1 immunoprecipitate in vitro kinase assay, growth factor treated PC12 cells; assay type: cell-based; conditions: in comparison to MEKK1 or Raf-B
Experimental: as §1

MEKK1 = MEKK1 immunoprecipitate in vitro kinase assay (MEK-1 phosphorylation), growth factor treated PC12 cells; assay type: cell-based; conditions: for MEKK1 activity: serum starved PC12 cells, EGF 30 ng/ml or NGF 100 ng/ml, 5 minutes
C-Raf = assay: Raf activation assay (kinase-inactive MEK-1 phosphorylation), L929 cells; assay type: cell-based, murine
Experimental: (§2) RafActivation Assay Cells were serum starved and challenged in the presence or absence of the appropriate cytokine or growth factors, as described above. Cells were lysed by scraping in ice cold RIPA buffer (50 mM Tris-HCl, pH 7.2, 150 mM NaCl, 0.1% SDS, 0.5% sodium deoxycholate, 1.0% Triton X-100, 10 mM sodium pyrophosphate, 25 mM β-glycerophosphate, 2 mM sodium vanadate, 2.1 µg/ml aprotinin) and the nuclei were pelletted. The supernatants were normalized for protein content and precleared with protein A Sepharose prior to immunoprecipitation with rabbit antiserum to the C terminus of C-Raf, rabbit anti-serum to A-Raf or rabbit antiserum to B-Raf (Santa Cruz Biotech., Santa Cruz, Calif.) and protein A Sepharose for 2-3 hr at 4° C. The beads were washed twice with ice cold RIPA and twice with PAN. A third of the immunoprecipitate was diluted with SDS sample buffer and used for immunoblot analysis. […] Wild-type recombinant MEK-1 was autophosphorylated in parallel as a marker. Reactions were terminated by the addition of 12.5 μl 5× SDS sample buffer, boiled, and subjected to SDS-PAGE and autoradiography.

B-Raf = assay: as above; assay type: cell-based, murine
Experimental: as §2

[1] = system: Swiss 3T3 cells and REF52 cells; assay: Beauvericin-induced apoptosis (anti-tubulin and propidium iodide staining); assay type: cell-based; conditions: 50 μM, 6 hours, 37° C.
Experimental: A first group of transfected Swiss 3T3 cells and REF52 cells were treated with 50 μM beauvericin for 6 hours at 37° C. Beauvericin is a compound known to induce apoptosis in mammalian cells. A second group of cells were treated with a control buffer lacking beauvericin. The treated cells were then fixed in parafornaldehyde and permeabilized with saponin using protocols standard in the art. The permeabilized cells were then labelled by incubating the cells with a fluorescein-labelled anti-tubulin antibody (1:500; obtained from GIBCO, Gaithersburg, Md.) to detect cytoplasmic shrinkage or 10 μM propidium iodide (obtained from Sigma, St. Louis, Mo.) to stain DNA to detect nuclear condensation. The labelled cells were then viewed by differential fluorescent imaging using a Nikon Diaphot fluorescent microscope.

Swiss 3T3 cells = assay: Quantitation of MEKKCOOH-induced cell death after nuclear microinjection; assay type: cell-based
Experimental: Swiss 3T3 and REF52 cells were plated on acid-washed glass cover slips in Dulbecco's Modified Eagle's Medium (DMEM) and 10% bovine calf serum (BCS) or newborn calf serum (NCS). Cells were placed in DMEM/0.1% calf serum for overnight incubation prior to microinjection and used for injection at 50-70% confluence. Injections were performed with an Eppendorf automated microinjection system with needles pulled from glass capillaries on a vertical pipette puller (Kopf, Tujunga, Calif.). Cells were injected with pCMVβ-gal in the presence or absence of pCMV5MEKKCOOH or pCMV5BxBRaf at 20-100 ng/μl for each expression plasmid in 100 mM KC1, 5 mM NaPO4, pH 7.3. […] Similar results were obtained when cells were placed in 10% NCS after microinjection. Propidium iodide (5 pg/ml) was used to stain DNA. X-Gal reactions were performed for six hr.
Seventeen hours after injection cells were fixed and stained for β-galactosidase activity with X-Gal. Injected cells attached to the coverslip were scored as positive for cell death when they were highly condensed, small round cells.

COc1cccc(-c2cc(=O)c3ccccc3o2)c1N [PD #098059, reference compound]
effect on JNK activity (JNK): did not inhibit JNK kinase or the activation of JNK | effect on TNFα-mediated cell death / apoptosis (L929 cells): no effect on TNFα-mediated apoptosis | effect on the protective action of bFGF against TNFα-mediated cell death (L929 cells): inhibited the protective action of bFGF | effect on bFGF stimulation of MAPK activity (p42/p44 MAPK; L929 cells): inhibited bFGF stimulation of MAPK activity

N.N.[Cl][Pt][Cl] [cisplatin]
effect on full length MEKK1 protein (endogenous MEKK1 protein): induced the loss of full length MEKK1 | full length MEKK1 remaining after treatment (endogenous MEKK1 protein): no full length MEKK1 protein remaining

EGF: epidermal growth factor
time to peak Raf-B activity (Raf-B): 3 to 5 min | activation of c-Raf-1 (c-Raf-1): almost negligible | persistence of MEKK1 activation (MEKK1; EGF 30 ng/ml timecourse): at least 30 minutes | MEKK1 activity (MEKK1): increased MEKK1 activity

N17 Ras: HA-tagged inhibitory N17 Ras, IPTG-inducible in L929 cells [reference compound]
effect on TNFα stimulation of JNK (JNK): no effect on TNF stimulation of JNK | effect on TNFα-mediated cell death / apoptosis (L929 cells): did not affect TNFα induced apoptosis | effect on the protective action of bFGF against TNFα-mediated cell death (L929 cells): markedly inhibit the ability of bFGF to protect cells | effect on bFGF stimulation of MAPK activity (p42/p44 MAPK; L929 cells): significantly blunted bFGF stimulation of MAPK

NGF: growth factor used at 100 ng/ml on PC12 cells
activation of c-Raf-1 (c-Raf-1): almost negligible | MEKK1 activity (MEKK1): slight increase in MEKK1 activity

bFGF: recombinant human basic fibroblast growth factor (147aa)
effect on JNK activity (JNK): little or no effect on JNK activity | effect on TNFα stimulation of JNK (JNK): did not alter the magnitude of JNK activation | effect on TNFα-mediated cell death / apoptosis (L929 cells): effective at blocking TNFα-mediated cell death | cell number (L929 cells; in the absence of TNFα): did not measurably increase cell number | C-Raf activation (C-Raf): activation of both B-Raf and C-Raf | B-Raf activation (B-Raf): activation of both B-Raf and C-Raf | concentrations giving maximal stimulation of MAPK activity (p42/p44 MAPK): 0.25 to 0.5 ng/mL | MAPK activity (p42/p44 MAPK; L929 cells, TNFα 1 ng/ml where stated): robust activation of MAPK

beauvericin
apoptotic morphology [1]: cytoplasmic shrinkage (monitored by the anti-tubulin antibodies) and nuclear condensation

β-gal: expression plasmid encoding β-galactosidase, injected alone as control
injected cells with an altered morphology (Swiss 3T3 cells; 48-72 hours post-injection): < 1% | Condensed Cells (number) (Swiss 3T3 cells; Swiss 3T3 cells, 100 ng/μl plasmids, seventeen hours after injection, highly condensed, small round cells): 4 | Condensed Cells (%) (Swiss 3T3 cells; Swiss 3T3 cells, 100 ng/μl plasmids, seventeen hours after injection, percent of cells injected): 1%
